“And” between values parts separate entries of the source, which are not always exact repeats. Equal entries are not always repeated. Toxic doses and inconclusive results are not listed.
System: BDF1 mice, P388 leukemia ip, median survival T/C
Experiment: NCI In Vivo Anticancer Drug Screen. Data for tumor model P388 Leukemia (intraperitoneal) in B6D2F1 (BDF1) mice
Conditions: endpoint: median survival time, higher = longer survival
Procedure, shortened: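 Compound-treated tumour-bearing mice were compared with vehicle-treated controls. Survival was recorded, and the value is the treated-group measurement divided by the control-group measurement (T/C).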

[1] = dose: 50.0 mg/kg/injection, schedule: Q01DX009 (ip), vehicle: saline
[2] = dose: 35.0 mg/kg/injection, schedule: Q01DX009 (ip), vehicle: saline
[3] = dose: 50.0 mg/kg/injection, schedule: Q01DX009 (ip), vehicle: saline with Tween-80
[4] = dose: 100.0 mg/kg/injection, schedule: Q01DX009 (ip), vehicle: saline with Tween-80
[5] = dose: 100.0 mg/kg/injection, schedule: Q01DX009 (ip), vehicle: Klucel (hydroxypropylcellulose) (HPC)
[6] = dose: 200.0 mg/kg/injection, schedule: Q01DX009 (ip), vehicle: Klucel (hydroxypropylcellulose) (HPC)
[7] = dose: 400.0 mg/kg/injection, schedule: Q01DX009 (ip), vehicle: Klucel (hydroxypropylcellulose) (HPC)
[8] = dose: 25.0 mg/kg/injection, schedule: Q01DX009 (ip), vehicle: saline
[9] = dose: 200.0 mg/kg/injection, schedule: Q01DX009 (ip), vehicle: saline with Tween-80

C=C1C(=O)O[C@@H]2C[C@@H](C)[C@@H]3[C@@H](OC4OC(COC(C)=O)C(O)C(O)C4O)CC(=O)[C@@]3(C)C[C@H]12 (some centres not stated)
T/C (dose: 2.8 mg/kg/injection, schedule: Q01DX009 (ip), vehicle: saline): 100 % of control
T/C (dose: 4.2 mg/kg/injection, schedule: Q01DX009 (ip), vehicle: saline): 122 % of control
T/C [1]: 100 % of control
T/C (dose: 75.0 mg/kg/injection, schedule: Q01DX009 (ip), vehicle: saline): 105 % of control

COc1cc(N(CCCl)CCCl)ccc1C=Nc1ccccc1C(=O)O
T/C (dose: 5.0 mg/kg/injection, schedule: Q01DX009 (ip), vehicle: saline): 227 % of control
T/C (dose: 11.9 mg/kg/injection, schedule: Q04DX003 (ip), vehicle: saline with Tween-80): 237 % of control
T/C (dose: 18.0 mg/kg/injection, schedule: Q04DX003 (ip), vehicle: saline with Tween-80): 254 % of control
T/C (dose: 27.0 mg/kg/injection, schedule: Q04DX003 (ip), vehicle: saline with Tween-80): 116 % of control

CCN=C1N[N+]2=CCCCC2S1 (configuration not stated)
T/C [2]: 111 % of control
T/C (dose: 140.0 mg/kg/injection, schedule: Q01DX009 (ip), vehicle: saline): 95 % of control

C[N+](C)(CC(=O)Nc1ccc(Cl)c(Cl)c1)CC(=O)c1ccc(Cl)cc1
T/C (dose: 6.25 mg/kg/injection, schedule: Q04DX003 (ip), vehicle: saline): 110 % of control
T/C (dose: 12.5 mg/kg/injection, schedule: Q04DX003 (ip), vehicle: saline): 95 % of control
T/C (dose: 25.0 mg/kg/injection, schedule: Q04DX003 (ip), vehicle: saline): 100 % of control

CC(C)(C)NCCC(O)c1cc(C(F)(F)F)nc2c(C(F)(F)F)cccc12 (configuration not stated)
T/C [3]: 105 % of control
T/C [4]: 104 % of control

ON=C1CSSC1
T/C (dose: 0.78 mg/kg/injection, schedule: Q01DX009 (ip), vehicle: saline with Tween-80): 100 % of control
T/C (dose: 0.78 mg/kg/injection, schedule: Q04DX003 (ip), vehicle: saline with Tween-80): 106 % of control
T/C (dose: 1.56 mg/kg/injection, schedule: Q01DX009 (ip), vehicle: saline with Tween-80): 102 % of control
T/C (dose: 1.56 mg/kg/injection, schedule: Q04DX003 (ip), vehicle: saline with Tween-80): 100 % of control
T/C (dose: 3.12 mg/kg/injection, schedule: Q01DX009 (ip), vehicle: saline with Tween-80): 109 % of control
T/C (dose: 3.12 mg/kg/injection, schedule: Q04DX003 (ip), vehicle: saline with Tween-80): 99 % of control and 104 % of control
T/C (dose: 6.25 mg/kg/injection, schedule: Q01DX009 (ip), vehicle: saline with Tween-80): 90 % of control
T/C (dose: 6.25 mg/kg/injection, schedule: Q04DX003 (ip), vehicle: saline with Tween-80): 100 % of control and 104 % of control
T/C (dose: 12.5 mg/kg/injection, schedule: Q01DX009 (ip), vehicle: saline with Tween-80): 102 % of control
T/C (dose: 12.5 mg/kg/injection, schedule: Q04DX003 (ip), vehicle: saline with Tween-80): 99 % of control and 106 % of control

CC1=C(N2CCN(c3ccc(Cl)cc3)CC2)C(=O)CC(C)(C)C1
T/C [5]: 110 % of control
T/C [6]: 105 % of control
T/C [7]: 100 % of control

CC(C)[N+](C)(C)CC(O)COc1cccc2ccccc12 (configuration not stated)
T/C (dose: 12.5 mg/kg/injection, schedule: Q01DX009 (ip), vehicle: saline): 103 % of control and 112 % of control
T/C [8]: 88 % of control and 109 % of control
T/C [1]: 105 % of control and 123 % of control

c1ccc2c(c1)NC1(CCCCC1)S2
T/C [5]: 104 % of control
T/C (dose: 100.0 mg/kg/injection, schedule: Q04DX003 (ip), vehicle: Klucel (hydroxypropylcellulose) (HPC)): 95 % of control
T/C [6]: 104 % of control
T/C (dose: 200.0 mg/kg/injection, schedule: Q04DX003 (ip), vehicle: Klucel (hydroxypropylcellulose) (HPC)): 105 % of control
T/C [7]: 109 % of control
T/C (dose: 400.0 mg/kg/injection, schedule: Q04DX003 (ip), vehicle: Klucel (hydroxypropylcellulose) (HPC)): 105 % of control

COc1cc([C@@H]2c3cc4c(cc3C(Br)[C@H]3COC(=O)[C@H]23)OCO4)cc(OC)c1OC (some centres not stated)
T/C (dose: 1.0 mg/kg/injection, schedule: Q01DX010 (ip), vehicle: carboxymethylcellulose (CMC)): 104 % of control
T/C (dose: 2.1 mg/kg/injection, schedule: Q01DX010 (ip), vehicle: carboxymethylcellulose (CMC)): 104 % of control
T/C (dose: 4.2 mg/kg/injection, schedule: Q01DX010 (ip), vehicle: carboxymethylcellulose (CMC)): 104 % of control
T/C (dose: 7.5 mg/kg/injection, schedule: Q01DX009 (ip), vehicle: Klucel (hydroxypropylcellulose) (HPC)): 161 % of control
T/C (dose: 15.0 mg/kg/injection, schedule: Q01DX009 (ip), vehicle: Klucel (hydroxypropylcellulose) (HPC)): 190 % of control
T/C (dose: 30.0 mg/kg/injection, schedule: Q01DX009 (ip), vehicle: Klucel (hydroxypropylcellulose) (HPC)): 95 % of control

O=C(OCC#CC#CCOC(=O)c1cccc2ccccc12)c1cccc2ccccc12
T/C [5]: 100 % of control
T/C [6]: 95 % of control
T/C [7]: 105 % of control

Oc1cc(O)c(CN(CCCl)CCCl)cc1CN(CCCl)CCCl
T/C (dose: 1.0 mg/kg/injection, schedule: Q01DX009 (ip), vehicle: saline): 118 % of control
T/C (dose: 1.5 mg/kg/injection, schedule: Q01DX009 (ip), vehicle: saline): 118 % of control
T/C (dose: 2.4 mg/kg/injection, schedule: Q01DX009 (ip), vehicle: saline): 157 % of control
T/C (dose: 3.6 mg/kg/injection, schedule: Q01DX009 (ip), vehicle: saline): 182 % of control
T/C (dose: 5.4 mg/kg/injection, schedule: Q01DX009 (ip), vehicle: saline): 166 % of control
T/C (dose: 5.5 mg/kg/injection, schedule: Q01DX009 (ip), vehicle: saline): 168 % of control
T/C (dose: 8.2 mg/kg/injection, schedule: Q01DX009 (ip), vehicle: saline): 176 % of control
T/C (dose: 8.25 mg/kg/injection, schedule: Q01DX009 (ip), vehicle: saline): 165 % of control and 180 % of control
T/C (dose: 9.9 mg/kg/injection, schedule: Q04DX003 (ip), vehicle: saline): 163 % of control
T/C (dose: 15.0 mg/kg/injection, schedule: Q04DX003 (ip), vehicle: saline): 220 % of control
T/C (dose: 16.0 mg/kg/injection, schedule: Q01DX009 (ip), vehicle: saline): 194 % of control
T/C (dose: 18.75 mg/kg/injection, schedule: Q01DX009 (ip), vehicle: saline): 195 % of control and 200 % of control
T/C (dose: 23.0 mg/kg/injection, schedule: Q04DX003 (ip), vehicle: saline): 160 % of control
T/C [8]: 162 % of control and 202 % of control and 222 % of control
T/C [2]: 185 % of control
T/C (dose: 35.0 mg/kg/injection, schedule: Q04DX003 (ip), vehicle: saline): 190 % of control and 200 % of control
T/C [1]: 150 % of control
T/C (dose: 55.0 mg/kg/injection, schedule: Q04DX003 (ip), vehicle: saline): 250 % of control and 212 % of control
T/C (dose: 80.0 mg/kg/injection, schedule: Q04DX003 (ip), vehicle: saline): 250 % of control and 208 % of control
T/C (dose: 100.0 mg/kg/injection, schedule: Q01DX009 (ip), vehicle: saline): 86 % of control
T/C (dose: 200.0 mg/kg/injection, schedule: Q01DX009 (ip), vehicle: saline): 177 % of control

O=C1N/C(=N\O)S/C1=C/c1ccc2c(c1)OCO2
T/C (dose: 100.0 mg/kg/injection, schedule: Q01DX001 (ip), vehicle: saline with Tween-80): 89 % of control
T/C (dose: 200.0 mg/kg/injection, schedule: Q01DX001 (ip), vehicle: saline with Tween-80): 95 % of control
T/C (dose: 400.0 mg/kg/injection, schedule: Q01DX001 (ip), vehicle: saline with Tween-80): 105 % of control

CN=C(N)c1ccc(N=C(N)c2ccc(N=C(N)c3ccc(C(N)=NC)cc3)cc2)cc1
T/C (dose: 10.0 mg/kg/injection, schedule: Q04DX003 (ip), vehicle: saline): 104 % of control
T/C (dose: 20.0 mg/kg/injection, schedule: Q04DX003 (ip), vehicle: saline): 104 % of control
T/C (dose: 40.0 mg/kg/injection, schedule: Q04DX003 (ip), vehicle: saline): 116 % of control

C/C(=C\c1ccc(N(C)C)cc1C)[N+](=O)[O-]
T/C [3]: 116 % of control and 118 % of control
T/C [4]: 114 % of control and 124 % of control
T/C [9]: 122 % of control

O=C(c1ccccc1)C1OC1c1ccccc1 (configuration not stated)
T/C [4]: 93 % of control
T/C [9]: 99 % of control
T/C (dose: 400.0 mg/kg/injection, schedule: Q01DX009 (ip), vehicle: saline with Tween-80): 100 % of control
T/C (dose: 600.0 mg/kg/injection, schedule: Q01DX009 (ip), vehicle: saline with Tween-80): 100 % of control

COC[C@H]1OC(=O)c2coc3c2[C@@]1(C)C1=C(C3=O)[C@@H]2CCC(=O)[C@@]2(C)C[C@H]1OC(C)=O
T/C (dose: 0.16 mg/kg/injection, schedule: Q01DX009 (ip), vehicle: saline): 108 % of control
T/C (dose: 0.31 mg/kg/injection, schedule: Q01DX009 (ip), vehicle: saline): 115 % of control
T/C (dose: 0.63 mg/kg/injection, schedule: Q01DX009 (ip), vehicle: saline): 116 % of control
T/C (dose: 2.5 mg/kg/injection, schedule: Q01DX009 (ip), vehicle: saline): 117 % of control

O=C(O)/C=C/c1ccc(Cl)cc1Cl
T/C [3]: 95 % of control
T/C [4]: 90 % of control
T/C [9]: 90 % of control

Reference: PubChem BioAssay AID328 (DTP/NCI, 2004)
